“Also recorded” adds a separate entry of the source.
Legend:
[1] = test system: LQTS2-EBs; assay: Microelectrode array (MEA) extracellular field potential recordings, LQTS2; type: cell-based, human; conditions: for cFPD (repolarization duration): human LQTS2 CMs
Description: (§1) To characterize the electrophysiological properties of the hiPS-CMs, a microelectrode array (MEA) recording system (Multichannel Systems, Reutlingen, Germany) was used as described previously. Briefly, contracting areas were micro-dissected and plated on MEA plates, allowed to adjust for 72 hrs before recording. All clusters were monitored for their beating abilities (beats/min) under the microscope during the 72 hr period. Clusters that maintained relatively uniform beating rates were then subjected to drugs. The MEA system allows simultaneous recordings from 60 titanium nitride-coated gold electrodes (30 μm) at high spatial (200 μm) and temporal (15 kHz) resolutions. All stock drugs were diluted in medium (2 mL) to assess the effects on the electrophysiological properties. […]. MEA clip along with the beating clusters was maintained on 37° C. throughout the duration of experiments. Care was also taken that all buffers including the medium utilized during all experimentation were pre-warmed to 37° C. All tested drugs were procured from Sigma-Aldrich, MO, USA. All extracellular recordings were performed for 180 seconds at baseline and at 5 minutes after drug application at 37° C. Data were recorded using MC Rack software (Multichannel System) and the recordings were used to determine the local field potential duration (FPD). FPD measurements were normalized (corrected FPD [cFPD]) to the beating rate of the contracting areas with the Bazzet correction formula: cFPD=FPD/√(RR interval).

[2] = test system: control-EBs; assay: Microelectrode array (MEA) extracellular field potential recordings, control; type: cell-based, human; conditions: 100 nM E-4031, control contracting EBs
Description: as §1, with “FPD measurements were normalized (corrected FPD [cFPD]) to the beating rate of the contracting areas with the Bazzet correction formula: cFPD=FPD/√(RR interval).” left out

[3] = atenolol 10 μM after isoproterenol, LQTS2-EBs

## Cc1cccc(CCN2CCC(C(=O)c3ccc(NS(C)(=O)=O)cc3)CC2)n1 [E-4031]
[1]; 100 nM E-4031, LQTS2 contracting EBs
  beating rate-corrected field potential duration (cFPD): increased cFPDs significantly
[2]
  beating rate-corrected field potential duration (cFPD): increased cFPDs significantly

## O=C([O-])CCCc1ccccc1.[Na+] [4PBA, sodium 4-phenylbutyrate]
[1]; sodium 4-phenylbutyrate 400 μM
  cFPD (repolarization duration): shortening the cFPD
[1]; sodium 4-phenylbutyrate 400 μM, listed as 4BPA
  cFPD (repolarization duration): shortening of repolarization duration

## Cc1ccc(NC(=O)C2(c3ccc4c(c3)OC(F)(F)O4)CC2)nc1-c1cccc(C(=O)O)c1 [VX-809, 3-[6-[[1-(2,2-difluoro-1,3-benzodioxol-5-yl)cyclopropanecarbonyl]amino]-3-methylpyridin-2-yl]benzoic acid]
[1]; VX-809 10 μM
  cFPD (repolarization duration): shortening the cFPD; also recorded: shortening of repolarization duration

## CC(C)NCC(O)c1ccc(O)c(O)c1 (stereo not shown) [isoproterenol]
[1]; isoproterenol 1 uM, LQTS2-EBs
  arrhythmogenic episodes: aggravating arrhythmogenic episodes
  beating frequencies: increased beating frequencies
[1]; isoproterenol 1 uM, LQTS2-EBs, n=15, LQTS2-baseline 0.657±0.07 s
  cFPD: 0.212 ± 0.02 s

## CC(C)NCC(O)COc1ccc(CC(N)=O)cc1 (stereo not shown) [atenolol]
[1]; [3]
  beating frequencies: reduced the beating frequencies
  cFPD: restored cFPDs

Source: patent publication US9797883B2, “Re-trafficking of herg reverses long QT syndrome 2 phenotype in human iPS-derived cardiomyocytes” (Singapore Health Services Pte Ltd, priority 2013, dated 2017)
